Drawing on patent publication US20250171438A1 (Agios Pharmaceuticals, Inc., priority 2022, published 2025), this text covers AC50 for twelve compounds.

Each structure is given as a SMILES string.

The assay addresses T1, human PAH with the R408W mutation (Homo sapiens, UniProt P00439, R408W).
T1 construct: expressed in transfected cells
T1 sequence (P00439 1-452 R408W): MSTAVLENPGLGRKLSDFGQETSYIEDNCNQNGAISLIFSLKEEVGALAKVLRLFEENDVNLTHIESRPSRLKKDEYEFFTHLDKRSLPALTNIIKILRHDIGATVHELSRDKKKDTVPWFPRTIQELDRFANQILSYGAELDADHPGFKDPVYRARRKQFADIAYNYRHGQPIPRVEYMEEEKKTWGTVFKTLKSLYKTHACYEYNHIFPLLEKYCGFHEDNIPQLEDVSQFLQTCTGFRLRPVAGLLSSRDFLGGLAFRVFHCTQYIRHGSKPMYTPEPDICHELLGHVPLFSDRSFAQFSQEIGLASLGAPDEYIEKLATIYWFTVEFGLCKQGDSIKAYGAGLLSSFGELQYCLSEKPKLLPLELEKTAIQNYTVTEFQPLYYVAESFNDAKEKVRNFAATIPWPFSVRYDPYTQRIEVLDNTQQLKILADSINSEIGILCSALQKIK
The experiment in a line: Cell Based Phenylalanine Flux Assay. As to conditions: A375 cells expressing human R408W PAH; 24 hrs compound incubation; 13C-Tyrosine by LC-MS; average where tested multiple times; read-out: AC50.

As a reminder, the AC50 is the midpoint of the concentration-response curve, whichever way the signal moves.

As to `c1ccc2[nH]c([C@H]3c4nc[nH]c4CCN3c3nc4ccccc4o3)nc2c1` [Example 987, (R)-2-(4-(1H-benzo[d]imidazol-2-yl)-6,7-dihydro-1H-imidazo[4,5-c]pyridin-5(4H)-yl)benzo[d]oxazole], the AC50 was more than 5 µM.
With `c1ccc2[nH]c([C@@H]3c4nc[nH]c4CCN3c3nc4ccccc4o3)nc2c1` [Example 988, (S)-2-(4-(1H-benzo[d]imidazol-2-yl)-6,7-dihydro-1H-imidazo[4,5-c]pyridin-5(4H)-yl)benzo[d]oxazole], the AC50 is less than 0.5 µM.
The value for `O=C(c1cnc(-c2ccccn2)s1)N1CCc2[nH]cnc2[C@H]1c1nc2ccccc2[nH]1` [Example 989, (S)-(4-(1H-benzo[d]imidazol-2-yl)-6,7-dihydro-1H-imidazo[4,5-c]pyridin-5(4H)-yl)(2-(pyridin-2-yl)thiazol-5-yl)methanone] was 0.5 to 1 µM.
With `O=C(c1cnn2ccccc12)N1CCc2[nH]cnc2[C@H]1c1nc2cccc(F)c2[nH]1` [Example 990, (S)-(4-(7-fluoro-1H-benzo[d]imidazol-2-yl)-6,7-dihydro-1H-imidazo[4,5-c]pyridin-5(4H)-yl)(pyrazolo[1,5-a]pyridin-3-yl)methanone], the AC50 lay within 0.5 to 1 µM.
The value for `O=C(c1cnn2ccccc12)N1CCc2[nH]cnc2[C@@H]1c1nc2cccc(F)c2[nH]1` [Example 991, (R)-(4-(7-fluoro-1H-benzo[d]imidazol-2-yl)-6,7-dihydro-1H-imidazo[4,5-c]pyridin-5(4H)-yl)(pyrazolo[1,5-a]pyridin-3-yl)methanone] was more than 5 µM; that for `Cc1ncoc1C(=O)N1CCc2[nH]cnc2[C@@H]1c1nc2ccccc2[nH]1` [Example 992, (R)-(4-(1H-benzo[d]imidazol-2-yl)-6,7-dihydro-1H-imidazo[4,5-c]pyridin-5(4H)-yl)(4-methyloxazol-5-yl)methanone] was more than 5 µM; that for `Cc1ncoc1C(=O)N1CCc2[nH]cnc2[C@H]1c1nc2ccccc2[nH]1` [Example 993, (S)-(4-(1H-benzo[d]imidazol-2-yl)-6,7-dihydro-1H-imidazo[4,5-c]pyridin-5(4H)-yl)(4-methyloxazol-5-yl)methanone] was less than 0.5 µM.
For `O=C(c1ocnc1C(F)(F)F)N1CCc2[nH]cnc2[C@H]1c1nc2ccccc2[nH]1` [Example 994, (S)-(4-(1H-benzo[d]imidazol-2-yl)-6,7-dihydro-1H-imidazo[4,5-c]pyridin-5(4H)-yl)(4-(trifluoromethyl)oxazol-5-yl)methanone] the value was less than 0.5 µM.
For `O=C(c1oc(-c2ccccn2)nc1C1CC1)N1CCc2[nH]cnc2[C@H]1c1nc2ccccc2[nH]1` [Example 995, (S)-(4-(1H-benzo[d]imidazol-2-yl)-6,7-dihydro-1H-imidazo[4,5-c]pyridin-5(4H)-yl)(4-cyclopropyl-2-(pyridin-2-yl)oxazol-5-yl)methanone] the value was 0.5 to 1 µM; for `O=C(CCc1ncc(Cl)s1)N1CCc2[nH]cnc2[C@H]1c1nc2ccccc2[nH]1` [Example 996, (S)-1-(4-(1H-benzo[d]imidazol-2-yl)-1,4,6,7-tetrahydro-5H-imidazo[4,5-c]pyridin-5-yl)-3-(5-chlorothiazol-2-yl)propan-1-one], 1 to 5 µM.
Turning to `O=C(c1cnn2ccc(Br)cc12)N1CCc2[nH]cnc2[C@H]1c1nc2ccc(Br)cc2[nH]1` [Example 997, (S)-(4-(6-bromo-1H-benzo[d]imidazol-2-yl)-6,7-dihydro-1H-imidazo[4,5-c]pyridin-5(4H)-yl)(5-bromopyrazolo[1,5-a]pyridin-3-yl)methanone], the AC50 was 1 to 5 µM.
For the compound `O=C(c1cnn2ccc(Br)cc12)N1CCc2[nH]cnc2[C@@H]1c1nc2ccc(Br)cc2[nH]1` [Example 998, (R)-(4-(6-bromo-1H-benzo[d]imidazol-2-yl)-6,7-dihydro-1H-imidazo[4,5-c]pyridin-5(4H)-yl)(5-bromopyrazolo[1,5-a]pyridin-3-yl)methanone], the AC50 is more than 5 µM.
